Data from patent US11958821B2, “Phenethylamine compounds salts, polymorphic forms and methods of use thereof” (Terran Biosciences Inc., priority 2021, dated 2024).

Columns and labels:
[1] = cited from earlier work
[2] = Dynamic vapor sorption (DVS) analysis with post-DVS XRPD; assay type: physicochemical
[3] = Physical stability of MBDB salts at 40° C./75% RH; assay type: physicochemical
Description: During the screen, a single crystal Maleate 1 of sufficient size and quality was obtained from a vapor diffusion experiment with ethanol and hexane. The crystal structure is reported elsewhere but the data confirmed the anhydrous/unsolved nature of the material. […] Two new crystalline forms of MBDB Maleate were observed during the screening designated as MBDB Maleate 2 and MBDB Maleate 3 (FIG. 96, 97). Additional characterization of these samples was conducted to better understand the nature of the materials produced, as shown below. MBDB Maleate 2 was generated once from a cooling crystallization from dioxane. The proton nuclear magnetic resonance (NMR) spectrum was consistent with a monomaleate salt of MBDB and contained residual dioxane. Only a limited amount of material was recovered so the only additional characterization that could be completed was differential scanning calorimetry (DSC). The DSC thermogram appears consistent with an anhydrous/unsolvated form with a likely melt at 96° C. (FIG. 100). […] An attempt was made to reproduce Maleate 2 using the same conditions and seeds of Maleate 2. PXRD analysis of the recovered solids however was consistent with Maleate 1. MBDB Maleate 3 was isolated from an evaporation experiment involving chloroform and ethyl acetate. NMR analysis of the material was consistent with a mono-maleate salt of MBDB. Thermal analysis was consistent with an anhydrous/unsolvated material with a likely melting point of 73° C. (FIG. 101). […] No additional characterization was completed on this sample due to the limited amount of material that was recovered.

[4] = Solid-form stability of MBDB maleate forms (ball milling, drying, interconversion slurry); assay type: physicochemical; details: ball milled
Description: During the screen, a single crystal Maleate 1 of sufficient size and quality was obtained from a vapor diffusion experiment with ethanol and hexane. The crystal structure is reported elsewhere but the data confirmed the anhydrous/unsolved nature of the material. […] Two new crystalline forms of MBDB Maleate were observed during the screening designated as MBDB Maleate 2 and MBDB Maleate 3 (FIG. 96, 97). Additional characterization of these samples was conducted to better understand the nature of the materials produced, as shown below. MBDB Maleate 2 was generated once from a cooling crystallization from dioxane. The proton nuclear magnetic resonance (NMR) spectrum was consistent with a monomaleate salt of MBDB and contained residual dioxane. Only a limited amount of material was recovered so the only additional characterization that could be completed was differential scanning calorimetry (DSC). The DSC thermogram appears consistent with an anhydrous/unsolvated form with a likely melt at 96° C. (FIG. 100). […] An attempt was made to reproduce Maleate 2 using the same conditions and seeds of Maleate 2. PXRD analysis of the recovered solids however was consistent with Maleate 1. MBDB Maleate 3 was isolated from an evaporation experiment involving chloroform and ethyl acetate. NMR analysis of the material was consistent with a mono-maleate salt of MBDB. […]

SMILES | Reported time to achieve peak effects ([1]; after dosing) [h] | Oral dose for drug activity level Very Strong ([1]; oral) [mg] | Hygroscopicity by DVS ([2]; 25° C., 5 to 95% RH) | DVS weight gain ([2]; at 95% RH, listed as MBDB Maleate Form1) [% wt gain] | Hygroscopic? ([2]; based on moisture uptake at 95% observed during DVS analysis) | Physical stability by PXRD ([3]; 40° C./75% RH for 50 days) | Physical Stability ([3]; 40° C./75% RH overnight) | Physical Stability ([3]; after 1 day at 40° C./75% RH) | Stability to ball milling (recovered solids vs starting material) [4]
CCNC(C)Cc1ccc2c(c1)OCO2 (stereo not drawn) [MDE, N-ethyl-3,4-methylenedioxyamphetamine] | 1 to 2 | ≥225 | – | – | – | – | – | – | –
CCC(Cc1ccc2c(c1)OCO2)NC.O=C(O)/C=C\C(=O)O (stereo not drawn) [Maleate 1] | – | – | minimal water sorption over RH range | 0.6 | Slightly | no change | No change | No visible change | stable under mechanical stressing
